Patent publication EP1566447A1, “Glimepiride- and insulin-induced glycosylphosphatidylinositol-specific phospholipase C regulation” (priority 2004, dated 2005)

Target: T1, Pancreatic lipase (PL) (Sus scrofa, UniProt P00591)
T1 construct: crude porcine pancreatic lipase (PL); purchased Sigma/Aldrich (Deisenhofen, Germany); host or cells: porcine pancreas (crude preparation)
T1 sequence (P00591 1-450): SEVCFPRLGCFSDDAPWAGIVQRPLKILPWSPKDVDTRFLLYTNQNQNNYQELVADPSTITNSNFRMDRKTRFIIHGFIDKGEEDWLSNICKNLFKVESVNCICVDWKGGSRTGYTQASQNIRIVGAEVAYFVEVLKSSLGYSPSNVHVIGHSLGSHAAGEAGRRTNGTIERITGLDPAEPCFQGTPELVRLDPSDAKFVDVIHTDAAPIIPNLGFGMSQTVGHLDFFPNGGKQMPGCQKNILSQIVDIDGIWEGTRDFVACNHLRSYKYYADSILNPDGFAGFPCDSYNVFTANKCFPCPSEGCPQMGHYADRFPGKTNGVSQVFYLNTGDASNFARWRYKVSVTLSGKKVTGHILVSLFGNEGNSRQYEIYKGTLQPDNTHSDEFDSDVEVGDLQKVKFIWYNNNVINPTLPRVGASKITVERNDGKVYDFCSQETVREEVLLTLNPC
T1 sequence (P02703 23-112 partner): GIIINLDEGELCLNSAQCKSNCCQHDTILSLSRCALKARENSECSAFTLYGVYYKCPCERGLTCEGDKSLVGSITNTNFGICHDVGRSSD
Assay: selectivity: pancreatic lipase assay
Assay type: biochemical, porcine
Details: 50 µM
Protocol: Hormone-sensitive lipase (HSL) and lipoprotein lipase (LPL) were measured using a radiolabeled triolein droplet emulsion as described in "Vertesy et al., (2002) Journal Antibiotics 55:480-494". Pancreatic lipase (PL) was determined by incubation of 0.25 mmol tributyrin in 2 ml of 5 mM Tris/HCl (pH 6.5), 6 mM sodium taurodeoxycholate, 150 mM NaCl, 1 mM CaCl2 with porcine PL and colipase in the same buffer using a recording pH stat (stirring at 1000 rpm at 25°C) with the pH adjusted to 6.5. PC-PLC was assayed by incubation of 0.2 ml of 10 mM dipalmitoyllecithin, 0.1 ml of 10 mM SDC and 0.1 ml of 0.03 M CaCl2 with bacterial PC-PLC (in 50 mM Tris/HCl, pH 7.5, 0.1 % BSA) for 10 min at 37°C. The reaction was terminated by addition of 0.1 ml of 50 % TCA and subsequently of 2.5 ml of […]. After centrifugation (1500xg, 15 min), 0.2-ml portions of the upper methanol/water phase (~ 1.33 ml) was removed, supplemented with 0.5 ml of 60 % HClO4, then heated at 170°C for 1 h and finally analyzed for inorganic phosphate. Mammalian PI-PLC was measured by incubation of 0.1 ml of 10 mM PI, 0.1 ml of 0.8 % sodium deoxycholate, 0.1 % BSA, 0.2 ml of 100 mM sodium borate (pH 7.5) and rat liver PI-PLC for 20 min at 37°C. The reaction was terminated and further processed as described for the PC-PLC. […] Radioactive phosphatidic acid was detected by phosphorimaging. […]

**Q.** For `CCCCCCCCCCCCP1(=O)O[C@@H]2[C@H](O)[C@@H](O)[C@H](O)[C@@H](O)[C@@H]2O1` (mixture of isomers) [GPI-2350, myo-inositol-1,2-cyclo-dodecylphosphonic acid], which “effect on lipase activity” value is on record?
**A.** not significantly affected
